Results: ChEMBL document CHEMBL1687705, “Design, Synthesis, and in Vitro Evaluation of Novel Aminomethyl-pyridines as DPP-4 Inhibitors” (ACS Med Chem Lett, 2010)

Legend:
[1] = test system: HeLa; experiment: Cytotoxicity against human HeLa cells at 10 uM; type: functional, cell-based
[2] = test system: HeLa; experiment: Cytotoxicity against human HeLa cells; type: functional; settings: read-out: LC50 (the source's name)
[3] = target: Dipeptidyl peptidase 4 (Homo sapiens, UniProt P27487); experiment: Inhibition of human recombinant DPP4 assessed as Gly-Pro-pNA chromogenic substrate cleavage for 16 mins preincubated with compound for 10 mins before addition of chromogenic substrate
Chain of Dipeptidyl peptidase 4 (P27487 whole entry): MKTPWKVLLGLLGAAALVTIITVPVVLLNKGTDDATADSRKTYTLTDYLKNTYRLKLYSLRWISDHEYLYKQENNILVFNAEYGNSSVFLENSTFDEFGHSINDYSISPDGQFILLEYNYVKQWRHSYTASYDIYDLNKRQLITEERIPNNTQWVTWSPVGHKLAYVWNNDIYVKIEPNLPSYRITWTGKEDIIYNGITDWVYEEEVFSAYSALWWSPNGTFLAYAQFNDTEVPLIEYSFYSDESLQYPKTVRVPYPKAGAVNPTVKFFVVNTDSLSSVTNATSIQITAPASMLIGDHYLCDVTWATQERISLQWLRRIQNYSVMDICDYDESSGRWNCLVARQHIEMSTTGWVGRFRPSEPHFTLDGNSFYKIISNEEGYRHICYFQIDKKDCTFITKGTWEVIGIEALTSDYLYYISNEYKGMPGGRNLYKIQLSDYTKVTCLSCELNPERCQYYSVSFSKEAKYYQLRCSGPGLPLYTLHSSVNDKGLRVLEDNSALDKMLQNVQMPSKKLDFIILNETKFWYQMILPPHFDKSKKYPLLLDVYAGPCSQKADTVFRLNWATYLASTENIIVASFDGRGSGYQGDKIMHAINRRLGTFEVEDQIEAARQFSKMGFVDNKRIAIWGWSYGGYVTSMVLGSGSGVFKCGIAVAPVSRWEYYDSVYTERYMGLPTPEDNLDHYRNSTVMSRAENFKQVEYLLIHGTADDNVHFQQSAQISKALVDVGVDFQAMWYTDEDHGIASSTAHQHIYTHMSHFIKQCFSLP

[4] = organism: Homo sapiens; experiment: Selectivity ratio of IC50 for human recombinant DPP8 to IC50 for human recombinant DPP4
[5] = target: Dipeptidyl peptidase 8 (Homo sapiens, UniProt Q6V1X1); experiment: Inhibition of human recombinant DPP8 assessed as Gly-Pro-pNA chromogenic substrate cleavage for 16 mins preincubated with compound for 10 mins before addition of chromogenic substrate
Chain of Dipeptidyl peptidase 8 (Q6V1X1 whole entry): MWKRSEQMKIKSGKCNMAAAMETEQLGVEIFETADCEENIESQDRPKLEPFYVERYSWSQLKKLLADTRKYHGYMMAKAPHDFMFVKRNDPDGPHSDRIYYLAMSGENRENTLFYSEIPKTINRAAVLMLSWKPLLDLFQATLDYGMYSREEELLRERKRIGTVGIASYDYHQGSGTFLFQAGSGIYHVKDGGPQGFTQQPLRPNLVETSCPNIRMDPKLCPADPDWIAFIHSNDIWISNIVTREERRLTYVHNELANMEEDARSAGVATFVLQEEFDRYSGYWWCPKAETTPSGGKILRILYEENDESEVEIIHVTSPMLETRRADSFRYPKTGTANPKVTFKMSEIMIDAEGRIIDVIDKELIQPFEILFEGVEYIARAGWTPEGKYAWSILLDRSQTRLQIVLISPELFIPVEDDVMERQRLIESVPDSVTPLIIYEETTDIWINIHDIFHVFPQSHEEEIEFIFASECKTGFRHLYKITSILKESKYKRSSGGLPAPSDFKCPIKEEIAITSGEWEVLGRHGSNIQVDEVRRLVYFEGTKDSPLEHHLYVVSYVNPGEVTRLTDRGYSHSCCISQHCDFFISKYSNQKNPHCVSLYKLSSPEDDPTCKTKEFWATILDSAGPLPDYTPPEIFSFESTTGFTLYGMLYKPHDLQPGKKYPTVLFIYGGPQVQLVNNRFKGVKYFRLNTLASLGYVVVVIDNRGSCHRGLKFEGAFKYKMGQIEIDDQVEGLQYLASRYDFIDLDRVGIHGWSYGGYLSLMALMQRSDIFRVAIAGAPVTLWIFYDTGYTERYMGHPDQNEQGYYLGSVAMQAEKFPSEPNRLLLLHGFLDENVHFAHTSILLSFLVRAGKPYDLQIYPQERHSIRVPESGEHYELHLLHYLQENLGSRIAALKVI

Row | IC50 [3] [µM] | Compound | Activity [1] | CC50 [2] [µM] | also measured
1 | – | Cc1nc(C(=O)NCC#N)cc(-c2ccc(Cl)cc2Cl)c1CN | Not toxic | > 10 | –
2 | < 50 | Cc1nc(C(=O)NCC(N)=O)cc(-c2ccc(Cl)cc2Cl)c1CN | Not toxic | – | Ratio IC50 [4]: 6600
3 | < 50 | CNC(=O)c1cc(-c2ccc(Cl)cc2)c(CN)c(C)n1 | – | – | –
4 | – | Cc1nc(C(=O)NC2CC2)cc(-c2ccc(F)cc2F)c1CN | – | > 10 | Ki [5]: 182 µM
5 | < 50 | COC(=O)CNC(=O)c1cc(-c2ccc(F)cc2F)c(CN)c(C)n1 | – | – | –
6 | > 50 | Cc1nc(CN)cc(-c2ccccc2F)c1C(N)=O | – | – | –
7 | < 50 | Cc1nc(C(=O)N2CCOCC2)cc(-c2ccc(F)cc2)c1CN | – | – | –
8 | < 50 | Cc1nc(C(=O)N2CCCC2)cc(-c2ccccc2F)c1CN | – | – | –
9 | < 50 | Cc1nc(C(=O)N2CCOCC2)cc(-c2ccc(Cl)cc2Cl)c1CN | Not toxic | – | –
10 | – | CNC(=O)c1cc(-c2ccc(Cl)cc2Cl)c(CN)c(C)n1 | Not toxic | > 10 | –
11 | – | Cc1nc(C(=O)N2CCCC2)cc(-c2ccc(F)cc2)c1CN | – | > 10 | Ki [5]: 137 µM
12 | – | Cc1nc(C(=O)NC2CC2)cc(-c2ccc(F)cc2)c1CN | – | > 10 | Ki [5]: 106 µM
13 | < 50 | Cc1nc(C(=O)O)cc(-c2ccc(F)cc2F)c1CN | – | – | –
14 | < 50 | Cc1nc(C(=O)NC2CC2)cc(-c2ccc(Cl)cc2Cl)c1CN | Not toxic | – | –
15 | – | Cc1cc(NC(=O)c2cc(-c3ccc(F)cc3F)c(CN)c(C)n2)no1 | – | > 10 | Ki [5]: 179 µM
16 | > 50 | Cc1nc(CN)cc(-c2ccc(Cl)cc2)c1C(N)=O | – | – | –
17 | – | Cc1nc(C(N)=O)cc(-c2ccc(Cl)cc2Cl)c1CN | Not toxic | > 10 | –
18 | < 50 | Cc1nc(C(N)=O)cc(-c2ccccc2F)c1CN | – | – | –
19 | < 50 | Cc1nc(C(=O)N2CCOCC2)cc(-c2ccc(F)cc2F)c1CN | – | – | –
20 | < 50 | Cc1nc(C(=O)NC2CC2)cc(-c2ccccc2F)c1CN | – | – | –
21 | – | Cc1nc(C(=O)N2CCCC2)cc(-c2ccc(Cl)cc2Cl)c1CN | Not toxic | > 10 | –
22 | < 50 | Cc1nc(C(=O)O)cc(-c2ccc(F)cc2)c1CN | – | – | –
23 | < 50 | Cc1nc(C(=O)N2CCCC2)cc(-c2ccc(F)cc2F)c1CN | – | – | –
